The values that follow come from US11512085B2, “Heteroaryl compound having drug activity” (SHANGHAI DUDE MEDICAL TECHNOLOGY CO., LTD, priority 2017, dated 2022).

The test system of one data set is DOHH-2. In words: In vitro tumor cell proliferation (CellTiter-Glo), DOHH-2. The class given is cell-based. Particulars: Homo sapiens, DOHH-2, 72 h; read-out: Growth IC50. On the procedure: (§1) Biological Embodiment 8: Study on Effects of Active Compounds for Inhibiting In Vitro Tumor Cell Proliferation
(§2) Promega CellTiter-Glo cell activity detection kit by luminescence (Promega-G7573).
(§3) Tumor cell lines were cultured in a 5% of CO2 incubator at 37° C. according to respective culture conditions; and periodic passage was performed, and cells positioned in a logarithmic phase were taken for planking.
(§4) 3) 90 μL of cell suspension was added into each well of the culture plate, and a culture solution containing no cell was added into blank control;
(§5) 4) the culture plate was cultured overnight in the 5% of CO2 incubator having relative humidity of 100% at 37° C.
(§6) Preparation of a 400× compound storage plate: the compound was diluted from the maximum concentration gradient to the lowest concentration with DMSO. […]
(§7) The following steps were performed according to the specification of the Promega CellTiter-Glo cell activity detection kit by luminescence (Promega-G7573). […]
(§8) 9) the luminescence signal was detected on the 2104 EnVision plate reader.
Background: In ATP-based viability assays light output follows the ATP content of the culture.

Data set [1] is described as follows: Pharmacokinetic study, single intravenous and oral dose, SD rats. In kind it is in vivo. As to conditions: male, blood; for AUC(0-t) / Cmax / Tmax / half-life: Rat; for half-life: read-out: T½ (converted). As for the experimental part:
Biological Embodiment 7: Pharmacokinetic Study of Performing Respective Single Intravenous and Oral Dose Delivery with Test Samples on SD Rats and Beagle Dogs
6 male SD rats were selected, and grouped and administered according to an experimental design table; 3 animals in the first group were intravenously administered once on the day of administration, wherein the administration dosage was 2 mg/kg, and the administration volume was 5 mL/kg; 3 animals in the second group were orally intragastrically administered once on the day of administration, wherein the administration dosage was 10 mg/kg, and the administration volume was 10 mL/kg.
All the animals were subjected to cage edge observation twice every day so as to determine whether the animals got ill or had injuries or death and other situations and whether supply of foods and water was sufficient. In the test process, all administered animals were subjected to detailed clinical observation before administration and at blood collection points.
Before administration (0 h) and within 0.083 h, 0.25 h, 0.5 h, 1 h, 2 h, 4 h, 6 h, 8 h and 24 h after administration, blood samples were collected from femoral veins at 10 time points so as to be used for blood concentration test.

Another data set deals with Granta-519. In words: In vitro tumor cell proliferation (CellTiter-Glo), Granta-519. The class given is cell-based. As to conditions: Homo sapiens, Granta-519, 72 h; read-out: Growth IC50. On the procedure: as §1, §2, §3, §4, §5, §6, §7, §8
The target in a further data set is LynA (Homo sapiens, UniProt P07948). In words: Btk selectivity over LynA (same kinase method, Btk replaced). The class given is biochemical. Particulars: ratio of IC50 values. As for the experimental part:
(§9) Other kinases (e.g., inhibitory activity of Lck and LynA is determined by replacing the Btk with various kinases and performing operations the same as that in the above method).

A further data set concerns WSU-NHL. The data set is described as follows: In vitro tumor cell proliferation (CellTiter-Glo), WSU-NHL. The class given is cell-based. Particulars: Homo sapiens, 72 h, read-out: Growth IC50. As for the experimental part: as §1, §2, §3, §4, §5, §6, §7, §8
The subject of a further data set is SU-DHL-10. In words: In vitro tumor cell proliferation (CellTiter-Glo), SU-DHL-10. In kind it is cell-based. Particulars: Homo sapiens, SU-DHL10; SU-DHL-10, 72 h; read-out: Growth IC50. On the procedure: as §1, §2, §3, §4, §5, §6, §7, §8
A further data set has as its system SU-DHL-6. In words: In vitro tumor cell proliferation (CellTiter-Glo), SU-DHL-6. The class given is cell-based. Particulars: Homo sapiens, SU-DHL-6, 72 h; read-out: Growth IC50. On the procedure:
as §1, §2, §3, §4, §5, §6, §7, §8

A further data set has as its target Lck (Homo sapiens, UniProt P06239). In words: Btk selectivity over Lck (same kinase method, Btk replaced). In kind it is biochemical. As to conditions: ratio of IC50 values. As for the experimental part: as §9
The next data set deals with SD rats. The data set is described as follows: Single dose toxicity test in SD rats. The class given is in vivo. On the procedure:
Biological Embodiment 6: Single Dose Toxicity Test
During the experiment, all the animals were subjected to detailed clinical observation once (2 hours after drug administration) on the Day 1 and once every day on Day 2-14; the animals were weighed on the day of animal grouping, on the day of drug administration (before drug administration), Day 4, 7, 10 and 13 after drug administration and on the day of dissection, and weights were recorded; food consumption per cage was weighed within 24 hours on Day 2, 6, 9 and 13 in the experiment and recorded; and all live animals were subjected to gross anatomy examination on Day 15.
1. Preparation of Test and Control Products
a solvent control group: 30 ml of solvents (0.5% MC (methylcellulose), 0.4% of cremophor EL and 0.1% of sodium lauryl sulfate) were sucked into a suitable container, the pH value was measured as 7, and a colorless clarified solution was obtained.
Compound 6 (400 mg/kg): 1507.1 mg of the compound 6 was weighed into a suitable container, solvents (0.5% MC (methylcellulose), 0.4% cremophor EL and 0.1% sodium lauryl sulfate) were added into the container to reach a constant volume of 30 ml, ultrasonic treatment was performed for 20 minutes, stirring was performed for 15 minutes, a mixing instrument was used for 5 minutes, the pH value was measured as 7, and white suspension was obtained.
Compound 6 (1000 mg/kg): 3765.5 mg of the compound 6 was weighed into a suitable container, solvents (0.5% MC (methylcellulose), 0.4% cremophor EL and 0.1% sodium lauryl sulfate) were added into the container to reach a constant volume of 30 ml, ultrasonic treatment was performed for 25 minutes, stirring was performed for 21 minutes, a mixing instrument was used for 5 minutes, the pH value was measured as 7, and white suspension was obtained. […]

Another data set has as its system Raji. In words: In vitro tumor cell proliferation (CellTiter-Glo), Raji. In kind it is cell-based. As to conditions: Homo sapiens, 72 h, read-out: Growth IC50. On the procedure:
as §1, §2, §3, §4, §5, §6, §7, §8

Like-named read-outs stand apart in the source and are kept apart here.

LynA, sequence (P07948 whole entry): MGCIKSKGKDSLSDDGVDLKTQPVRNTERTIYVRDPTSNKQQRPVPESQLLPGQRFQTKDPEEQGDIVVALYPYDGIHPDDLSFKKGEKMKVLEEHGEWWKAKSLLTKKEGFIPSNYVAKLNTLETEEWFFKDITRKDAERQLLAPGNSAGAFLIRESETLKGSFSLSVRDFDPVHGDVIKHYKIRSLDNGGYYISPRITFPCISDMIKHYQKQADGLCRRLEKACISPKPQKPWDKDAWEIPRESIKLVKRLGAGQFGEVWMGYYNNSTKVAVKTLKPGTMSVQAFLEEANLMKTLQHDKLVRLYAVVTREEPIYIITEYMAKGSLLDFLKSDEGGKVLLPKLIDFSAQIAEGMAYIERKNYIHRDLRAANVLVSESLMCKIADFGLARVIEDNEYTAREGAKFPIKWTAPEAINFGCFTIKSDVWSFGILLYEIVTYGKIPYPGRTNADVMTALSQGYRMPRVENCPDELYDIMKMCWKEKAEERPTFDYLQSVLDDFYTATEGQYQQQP
Lck, sequence (P06239 whole entry): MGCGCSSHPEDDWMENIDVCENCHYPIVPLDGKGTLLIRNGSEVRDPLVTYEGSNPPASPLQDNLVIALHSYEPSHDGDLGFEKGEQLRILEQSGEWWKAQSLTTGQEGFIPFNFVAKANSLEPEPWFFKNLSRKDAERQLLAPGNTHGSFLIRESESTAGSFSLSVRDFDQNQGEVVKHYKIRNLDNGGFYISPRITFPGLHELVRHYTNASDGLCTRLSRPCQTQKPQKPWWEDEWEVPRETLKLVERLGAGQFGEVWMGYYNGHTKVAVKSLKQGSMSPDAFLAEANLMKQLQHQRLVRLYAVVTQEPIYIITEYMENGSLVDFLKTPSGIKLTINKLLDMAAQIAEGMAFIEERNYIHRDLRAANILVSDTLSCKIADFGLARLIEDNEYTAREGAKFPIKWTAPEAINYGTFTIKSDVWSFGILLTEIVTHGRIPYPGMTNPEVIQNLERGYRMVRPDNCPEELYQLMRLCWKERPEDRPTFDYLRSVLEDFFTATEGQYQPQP

For orientation: IC50 means the concentration that inhibits the measured activity by half. What is called AUC(0-t) is the area under the concentration-time curve up to a stated or last time point. Lower therefore signals low exposure. Broadly, the Cmax is the highest concentration seen after dosing. One may read the Tmax as the time at which the peak concentration occurs. Usually bioavailability stands for dose-corrected exposure relative to a reference, in per cent. Higher therefore signals good availability. For the compound `C=CC(=O)NN1CCCC(n2nc(-c3ccc(Oc4ccccc4)cc3)c3c(N)ncnc32)C1` (centres unmarked) [Embodiment 6, N-(3-(4-amino-3-(4-phenoxyphenyl)-1H-pyrazolo[3,4-D]pyrimidine-1-yl)-1-piperidyl)-acrylamide], the IC50 is less than 0.003 µM in the data set with DOHH-2; 7.07 µM with Granta-519; 1.02 µM in the data set with WSU-NHL; greater than 10 µM in the data set with SU-DHL-10; greater than 10 µM in the data set with SU-DHL-6; greater than 10 µM in the data set on Raji. Besides, the AUC(0-t) in data set [1] (IV, 2 mg/kg) came out at 271 ng·h/mL; in data set [1] (PO, 10 mg/kg) it was 449 ng·h/mL. In addition, the Cmax in [1] (IV, 2 mg/kg) amounted to 658 ng/mL; in data set [1] (PO, 10 mg/kg), 447 ng/mL. The time to peak (Tmax) in data set [1] (IV, 2 mg/kg) amounted to 4.98 min; in data set [1] (PO, 10 mg/kg), 25.2 min. Further, the half-life in data set [1] (IV, 2 mg/kg) was 10.8 min; in [1] (PO, 10 mg/kg), 113 min. Moreover, the bioavailability in data set [1] (rat, oral, 10 mg/kg) worked out at 32.2%. On LynA, the “LynA[IC50]/Btk[IC50]” value came to 137. Besides, at Lck, the “Lck[IC50]/Btk[IC50]” value was found to be 285. Further, the Maximum tolerance dosage in the data set on SD rats (SD rats, oral, once, 0, 400, 1000, 2000 mg/kg) was 2000 mg/kg. For the same compound, the Gross anatomy entry in the data set on SD rats (rat, in vivo) is reported as “no abnormality”. Further, the “Results (single dose toxicity)” value with SD rats (rat, in vivo) was “No animal died; all tissues”.
